In patent publication US8241607B2, “Use of fructose-based compounds for the diagnosis of cancer” (priority 2005, dated 2012):

Key:
GLUT-5 mRNA = assay: Real-time RT-PCR of GLUT-5 mRNA in PANC-1 cells; type: cell-based; conditions: 5.5 mM fructose, 24 h
Protocol: FIG. 22 depicts […] mRNA levels in pancreatic cancer cells in accordance with an embodiment of the present invention. Quantitative real-time RT-PCR was used to measure GLUT-5 mRNA levels in pancreatic cancer cells (PANC-1), following culture in 2 mM glucose, 5.5 mM glucose, or 5.5 mM fructose for 4 h and 24 h.
Brit J Biomed Sci 56(4): 285-292, 1999; Rogers S, Docherty S E, Slavin J L, Henderson and Best J D. Differential expression of GLUT12 in breast cancer and normal breast tissue. Cancer Letters 193(2): 225-233, 2003). […] Real-time RT-PCR was used to measure GLUT-5 mRNA expression following 2 mM, and 5.5 mM glucose-, and 5.5 mM fructose-treatment for 4 h, and 24 h respectively. GLUT-5 mRNA was expressed as the fold-change relative to GLUT-5 mRNA levels in 2 mM glucose-treated cells. As depicted in FIG. 22, at 4 h, GLUT-5 mRNA levels were low in both the 5.5 mM glucose-, and fructose-treated PANC-1 cells. […] This agrees with other studies which have reported fructose-induced GLUT-5 mRNA expression in colon cancer (74).

PANC-1 cells = assay: PANC-1 proliferation in fructose versus glucose (MTS assay); type: cell-based
Protocol: FIG. 13 depicts higher proliferation rates in pancreatic cancer cells in fructose (5.5 mM) than glucose (5.5 mM) containing medium in accordance with an embodiment of the present invention. PANC-1 cells were pre-incubated in 2 mM glucose, after which they were plated in 5.5 mM fructose or glucose for times between 12-72 h, after which proliferative rates were measured using an MTS assay. Proliferative rates are expressed as the percentage difference between cells grown in 5.5 mM fructose versus 5.5 mM glucose. p<0.01 for times >48 h.
FIG. 14 depicts proliferation rates of pancreatic cells in different fructose or glucose concentrations in accordance with an embodiment of the present invention. PANC-1 cells were plated in a range of fructose or glucose concentrations (5-25 mM) for 72 h, after which proliferative rates were measured using an MTS assay. *, p<0.05 for concentrations between 5-25 mM fructose versus glucose.
FIG. 17 depicts cell proliferation regardless of co-existent glucose concentration in accordance with an embodiment of the present invention. PANC-1 cells were pre-incubated in 2 mM glucose prior to treatment with a range of concentrations (0-15 mM) mixed with a range of fructose concentrations (0-15 mM) for 72 h. PANC-1 cell proliferative rates were then measured using the MTS assay (absorbance in arbitrary units).
Standard media for maintenance cancer cell line culture, including pancreatic cancer cells such as PANC-1 cells contain either low- (5-7 mM), or high- (12-25 mM) glucose concentrations. […] Proliferative rates were then measured in replicate (minimum of 6) aliquot wells of the pancreatic cancer cells, and the change (expressed as percent increase) in proliferative rates compared between cells grown in glucose, or fructose containing medium.
This first result intrigued the inventors, but given there is little documentation regarding physiological fructose concentrations, the inventors first considered that the “apparent” pro-proliferative effects of fructose were simply a consequence of the highly stylized in vitro experimental conditions, and that if the pancreatic cancer cells were cultured in higher glucose concentrations, this would result in similar proliferative rates to those the inventors observed following culture in 5.5 mM fructose. […] MTS assay was employed to measure pancreatic cancer cell proliferative rates, which utilizes mitochondrial oxidation to quantify cell proliferation. As the inventors were examining carbohydrate-mediated effects, the inventors considered the change observed in proliferative rates, as measured by this assay, simply reflected changes in mitochondrial oxidation. […]

## O=C(CO)[C@@H](O)[C@H](O)[C@H](O)CO [fructose]
GLUT-5 mRNA
  GLUT-5 mRNA levels relative to 2 mM glucose-treated cells: 1.5 fold higher
  GLUT-5 mRNA levels relative to 5.5 mM glucose-treated cells: 1.75 fold higher
PANC-1 cells; 5 mM fructose vs 5-fold higher glucose (25 mM), 72 h
  proliferative rates: higher proliferative rates
PANC-1 cells; 5.5 mM fructose vs 5.5 mM glucose, 72 h (maximal)
  higher proliferative rate, fructose vs glucose: 23%
PANC-1 cells; 72 h, glucose 0-15 mM admixed with fructose 0-15 mM
  fructose concentration giving increase in cell proliferation regardless of co-existent glucose: ≥ 6 mM
PANC-1 cells; 72 h, range 2-25 mM
  fructose concentration at which increased proliferation was first demonstrable: around 5 mM
